Laboratory results from patent US20230124548A1, “Therapeutic Methods And Uses Thereof” (Eustralis Pharmaceuticals Limited (Trading As Pressura …, priority 2019, published 2023).
Like-named read-outs stand apart in the source and are kept apart here.

Tests used:
[1] = target: T1, central NK1 receptors (Homo sapiens, UniProt P25103); test: Phase 1 apomorphine challenge study: blocking of apomorphine induced emesis in healthy volunteers; format: in vivo; conditions: for Average Number of Retches or Vomits / Number of Retches (Events) / Number of Retches (Subjects) / Number of Vomits (Subjects) / Number of Vomits (Events): N = 5
T1 construct: from tissue; host or cells: central nervous system of healthy human volunteers (in vivo)
T1 sequence (P25103 whole entry): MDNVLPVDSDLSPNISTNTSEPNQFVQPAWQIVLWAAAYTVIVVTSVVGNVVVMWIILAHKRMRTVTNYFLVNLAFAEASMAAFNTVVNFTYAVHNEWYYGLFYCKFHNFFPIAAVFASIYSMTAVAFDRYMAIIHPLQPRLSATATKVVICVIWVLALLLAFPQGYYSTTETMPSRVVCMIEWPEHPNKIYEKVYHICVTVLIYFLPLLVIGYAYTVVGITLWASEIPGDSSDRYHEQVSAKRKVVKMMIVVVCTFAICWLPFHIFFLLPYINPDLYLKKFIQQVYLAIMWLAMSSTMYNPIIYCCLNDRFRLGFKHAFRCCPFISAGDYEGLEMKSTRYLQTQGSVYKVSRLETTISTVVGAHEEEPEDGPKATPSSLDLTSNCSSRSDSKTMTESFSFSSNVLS
Experimental: (§1) A pharmacodynamic study to assess functional blocking of central NK1 receptors was performed in healthy volunteers. This was done by testing the efficacy of the compound in blocking apomorphine induced emesis. This study indicates the need for a minimum concentration of the initial peak at infusion to obtain efficacious levels, rather than minimal plasma-levels at the time of apomorphine challenge.
(§2) In the phase 1 apomorphine challenge study the ability of the compound to block emesis induced by apomorphine was tested in healthy volunteers. […] At neither time point did subjects require rescue medication to prevent uncontrolled vomiting. On the other hand, when the apomorphine challenge was performed 2 hours after a 30 mg dose (n=5), an average of 4.2 retches and vomits were observed, which would have been even higher had two of five subjects not received rescue medication to block the apomorphine effects. Importantly the plasma concentration of the Compound 2 hours after the 30 mg dose was 60% higher than the plasma concentration 20 hours after the 90 mg dose.

[2] = Plasma concentrations in the apomorphine challenge study; format: in vivo, human
Experimental: as §1, §2

[3] = Intracranial pressure (ICP) curves in clinical trial patients, slow 2-hour infusion; format: in vivo, human; conditions: two patients, slow infusion over 2 hours
Experimental: In order to avoid any potential safety issues, the infusion in human clinic trials was slowed down to 2 hours to generate the same AUC but a lower Cmax.
However two patients were treated in a clinical trial, using a slow infusion rate over a timespan of 2 hours.

[4] = Solubility assessment and pH of solution; format: physicochemical
Experimental: Ethanol was also assessed as part of this study.

[5] = 30 mg, apomorphine challenge 2 h after dose
[6] = 90 mg, apomorphine challenge 2 h after dose
[7] = 90 mg, apomorphine challenge 20 h after dose

For Cc1ccccc1-c1cc(N2CCN(C)CC2)ncc1C(=O)N(C)Cc1cc(C(F)(F)F)cc(C(F)(F)F)c1 [Compound of Formula (I) 2HCl (R1 = CH3)], which “Average Number of Retches or Vomits” value [1, 5] is on record?
Its value is 4.2.

What about the “Number of Retches (Events)” value [1, 5] of the same compound?
Its value is 9.

And the “Number of Retches (Subjects)” value [1, 5]?
Its value is 2.

What about the “Number of Vomits (Subjects)” value [1, 5] of the same compound?
Its value is 3.

What about the “Number of Vomits (Events)” value ([1]; 30 mg, apomorphine challenge 2 h after dose, 2 of 5 subjects rescued) of the same compound?
Its value is greater than 12.

And the “Average Number of Retches or Vomits” value [1, 6]?
The value was 1.4.

And the “Number of Retches (Events)” value [1, 6]?
The value was 5.

What about the “Number of Retches (Subjects)” value [1, 6] of the same compound?
Its value is 2.

What about the “Number of Vomits (Events)” value [1, 6] of the same compound?
Its value is 2/2.

And the “Number of Vomits (Subjects)” value [1, 6]?
Its value is 2/2.

And the “Average Number of Retches or Vomits” value [1, 7]?
Its value is 2.6.

What about the “Number of Retches (Events)” value [1, 7] of the same compound?
Its value is 12.

What about the “Number of Retches (Subjects)” value [1, 7] of the same compound?
The value was 4.

What about the “Number of Vomits (Events)” value [1, 7] of the same compound?
Its value is 1/1.

What about the “Number of Vomits (Subjects)” value [1, 7] of the same compound?
The value was 1/1.

What about the “duration of reduction of retches/vomits once NK1 blockade is achieved” value ([1]; after peak level of at least 1000-1300 ng/ml) of the same compound?
Its value is no less than 20 h.

And the “plasma concentration 2 hours after the 30 mg dose, higher than plasma concentration 20 hours after the 90 mg dose” value ([2]; 30 mg/2 h versus 90 mg/20 h)?
The value was 60%.

And the Cmax ([2]; human, plasma, intravenous, 30 mg, apomorphine challenge 2 h after dose, N = 5, read-out: Cmax at end of infusion)?
Its Cmax is 252 ng/mL.

And the Cmax ([2]; human, plasma, intravenous, 90 mg, apomorphine challenge 2 h after dose, N = 5, read-out: Cmax at end of infusion)?
The Cmax was 1040 ng/mL.

What about the Cmax ([2]; human, plasma, intravenous, 90 mg, apomorphine challenge 20 h after dose, N = 5, read-out: Cmax at end of infusion) of the same compound?
Its Cmax is 1270 ng/mL.

And the Cmax ([2]; human, plasma, intravenous, 90 mg, healthy volunteers, apomorphine challenge, read-out: minimum initial peak level (Cmax) at infusion to obtain efficacious levels / central NK1 blockade)?
The Cmax was 1000 to 1300 ng/mL.

And the concentration at 2 h ([2]; human, plasma, intravenous, 30 mg, apomorphine challenge 2 h after dose, N = 5, read-out: Conc. at challenge)?
Its concentration at 2 h is 112 ng/mL.

What about the concentration at 2 h ([2]; human, plasma, intravenous, 90 mg, apomorphine challenge 2 h after dose, N = 5, read-out: Conc. at challenge) of the same compound?
The concentration at 2 h was 356 ng/mL.

What about the concentration at 20 h ([2]; human, plasma, intravenous, 90 mg, apomorphine challenge 20 h after dose, N = 5, read-out: Conc. at challenge) of the same compound?
Its concentration at 20 h is 69 ng/mL.

What about the “efficacy on ICP (ICP curves)” value [3] of the same compound?
Its value is “no or minimal efficacy”.

What about the “Solubility in Water, Result” value ([4]; 5 mg/mL (50 mg in 10 mL water)) of the same compound?
Its value is “Very soluble”.

And the pH of solution ([4]; 5 mg/mL in water)?
The pH of solution was 2.39.

What about the “Solubility in Water, Result” value ([4]; 10 mg/mL (100 mg in 10 mL water)) of the same compound?
Its value is “Very soluble”.

What about the pH of solution ([4]; 10 mg/mL in water) of the same compound?
The pH of solution was 2.14.

What about the “Solubility in Water, Result” value ([4]; 15 mg/mL (150 mg in 10 mL water)) of the same compound?
Its value is “Soluble”.

And the pH of solution ([4]; 15 mg/mL in water)?
The pH of solution was 2.02.

What about the “Solubility in Water, Result” value ([4]; 20 mg/mL (200 mg in 10 mL water)) of the same compound?
Its value is “Soluble”.

And the pH of solution ([4]; 20 mg/mL in water)?
The pH of solution was 1.87.

And the “Solubility in Water, Result” value ([4]; 25 mg/mL (250 mg in 10 mL water))?
Its value is “Soluble”.

And the pH of solution ([4]; 25 mg/mL in water)?
Its pH of solution is 1.81.

What about the “Solubility in Water, Result” value ([4]; 30 mg/mL (300 mg in 10 mL water)) of the same compound?
The value was “Soluble”.

And the pH of solution ([4]; 30 mg/mL in water)?
Its pH of solution is 1.75.

What about the “Solubility in Water, Result” value ([4]; 35 mg/mL (350 mg in 10 mL water)) of the same compound?
The value was “Soluble”.

And the pH of solution ([4]; 35 mg/mL in water)?
The pH of solution was 1.72.

What about the “Solubility in Water, Result” value ([4]; 40 mg/mL (400 mg in 10 mL water)) of the same compound?
Its value is “Soluble”.

What about the pH of solution ([4]; 40 mg/mL in water) of the same compound?
The pH of solution was 1.66.

And the “Solubility in Water, Result” value ([4]; 45 mg/mL (450 mg in 10 mL water))?
The value was “Soluble”.

What about the pH of solution ([4]; 45 mg/mL in water) of the same compound?
The pH of solution was 1.54.

What about the “Solubility in Water, Result” value ([4]; 50 mg/mL (500 mg in 10 mL water)) of the same compound?
The value was “Soluble”.

And the pH of solution ([4]; 50 mg/mL in water)?
Its pH of solution is 1.52.

What about the “Solubility” value ([4]; 50 mg/mL, stated after 'Ethanol was also assessed', solvent not explicit, golden yellow colour) of the same compound?
The value was “freely soluble”.
